Columns and labels:
ABUTH (Velvetleaf) [1] = test: Postemergence herbicidal evaluation; type: in vivo, Abutilon theophrasti; settings: postemergence
Method in brief: (§1)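 Rate range approx. 0.0156–0.500 kg/ha. Foliar application at 40 psi to ~2-week seedlings; surfactant 0.5% TWEEN 20 in 50/50 acetone/water. Evaluation 4–5 wk post-treatment by 0–9 visual injury score, means of replicate tests.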

AMBEL (Ragweed, Common) = test: Postemergence herbicidal evaluation; type: in vivo, Ambrosia artemisifolia; settings: postemergence
Method in brief: as §1

ECHCG (Barnyardgrass) = test: Postemergence herbicidal evaluation; type: in vivo, Echinochloa crus-galli; settings: postemergence
Method in brief: as §1

SETVI (Foxtail, Green) [2] = test: Postemergence herbicidal evaluation; type: in vivo, Setaria viridis; settings: postemergence
Method in brief: as §1

[3] = tested on: GLXMAW (Soybean, Williams); test: Postemergence herbicidal evaluation; type: in vivo, Glycine max, (L.) Merr. cv Williams; settings: postemergence
Method in brief: as §1

ORYSAT (Rice, Tebonnet) = test: Postemergence herbicidal evaluation; type: in vivo, Oryza sativa, (L.) Tebonnet; settings: postemergence
Method in brief: as §1

[4] = tested on: TRZAWR (Wheat, Winter, cv Riband); test: Postemergence herbicidal evaluation; type: in vivo, Triticum aestivum; settings: postemergence
Method in brief: as §1

ABUTH (Velvetleaf) [5] = test: Preemergence herbicidal evaluation; type: in vivo, Abutilon theophrasti; settings: rated 4-5 weeks after treatment
Method in brief: (§2)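 Scores (0–9) reflect visual comparison with control plants for stand, vigor, malformation, size and chlorosis. Compound was applied to the soil after sowing, before emergence, as an aqueous acetone spray (about 0.0156–0.500 kg/ha), and cups were kept in a greenhouse for 4–5 weeks.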

CASOB (Sicklepod) = test: Preemergence herbicidal evaluation; type: in vivo, Cassia obtusifolia; settings: rated 4-5 weeks after treatment
Method in brief: as §2

SETVI (Foxtail, Green) [6] = test: Preemergence herbicidal evaluation; type: in vivo, Setaria viridis; settings: rated 4-5 weeks after treatment
Method in brief: as §2

MOOVA (Monochoria) = test: Preemergence weed control under flooded paddy conditions; type: in vivo, Monochoria vaginalis; settings: rated 3-4 weeks after treatment
Method in brief: (§3)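 Values are visual 0-9 scores against a control for a preemergence application into paddy flood water at about 0.0313 to 0.500 kg/ha. Greenhouse duration was three to four weeks.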

[7] = tested on: SAGPY (Arrowhead (Pygmaea)); test: as above; type: in vivo, Sagittaria pygmaea; settings: rated 3-4 weeks after treatment
Method in brief: as §3

CYPIR (Rice Flatsedge) = test: Postemergence weed control under flooded paddy conditions; type: in vivo, Cyperus iria; settings: postemergence weeds, 3-4 weeks after treatment
Method in brief: (§4)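 With weeds 3 to 5 cm tall and rice at the 1.5 to 2.5 leaf stage, containers were flooded and water held 1.5 to 3 cm above soil. Compounds in 50/50 v/v aqueous/acetone went into the flood water at about 0.0313 to 0.500 kg/ha a.i. Effects were visually rated 0–9 against controls after three to four weeks in the greenhouse.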

[8] = tested on: SAGPY (Arrowhead (Pygmaea)); test: as above; type: in vivo, Sagittaria pygmaea; settings: postemergence weeds, 3-4 weeks after treatment
Method in brief: as §4

## CCOC(=O)/C=C1/S/C(=N/c2cc(-n3c(=O)cc(C(F)(F)F)n(C)c3=O)c(F)cc2Cl)N(CC(=O)OCC)C1=O [Compound 14]
ABUTH (Velvetleaf) [1]; rate 0.0156 kg/ha
  ABUTH herbicidal rating: 9.0
ABUTH (Velvetleaf) [1]; rate 0.0313 kg/ha
  ABUTH herbicidal rating: 9.0
ABUTH (Velvetleaf) [1]; rate 0.0625 kg/ha
  ABUTH herbicidal rating: 9.0
ABUTH (Velvetleaf) [1]; rate 0.1250 kg/ha
  ABUTH herbicidal rating: 9.0
AMBEL (Ragweed, Common); rate 0.0156 kg/ha
  AMBEL herbicidal rating: 9.0
AMBEL (Ragweed, Common); rate 0.0313 kg/ha
  AMBEL herbicidal rating: 9.0
AMBEL (Ragweed, Common); rate 0.0625 kg/ha
  AMBEL herbicidal rating: 9.0
AMBEL (Ragweed, Common); rate 0.1250 kg/ha
  AMBEL herbicidal rating: 9.0
ECHCG (Barnyardgrass); rate 0.0156 kg/ha
  ECHCG herbicidal rating: 9.0
ECHCG (Barnyardgrass); rate 0.0313 kg/ha
  ECHCG herbicidal rating: 9.0
ECHCG (Barnyardgrass); rate 0.0625 kg/ha
  ECHCG herbicidal rating: 9.0
ECHCG (Barnyardgrass); rate 0.1250 kg/ha
  ECHCG herbicidal rating: 9.0
SETVI (Foxtail, Green) [2]; rate 0.0156 kg/ha
  SETVI herbicidal rating: 7.0
SETVI (Foxtail, Green) [2]; rate 0.0313 kg/ha
  SETVI herbicidal rating: 8.0
SETVI (Foxtail, Green) [2]; rate 0.0625 kg/ha
  SETVI herbicidal rating: 9.0
SETVI (Foxtail, Green) [2]; rate 0.1250 kg/ha
  SETVI herbicidal rating: 9.0
[3]; rate 0.0156 kg/ha
  GLXMAW herbicidal rating: 6.0
[3]; rate 0.0313 kg/ha
  GLXMAW herbicidal rating: 8.0
[3]; rate 0.0625 kg/ha
  GLXMAW herbicidal rating: 9.0
[3]; rate 0.1250 kg/ha
  GLXMAW herbicidal rating: 8.5
ORYSAT (Rice, Tebonnet); rate 0.0156 kg/ha
  ORYSAT herbicidal rating: 3.5
ORYSAT (Rice, Tebonnet); rate 0.0313 kg/ha
  ORYSAT herbicidal rating: 5.5
ORYSAT (Rice, Tebonnet); rate 0.0625 kg/ha
  ORYSAT herbicidal rating: 6.0
ORYSAT (Rice, Tebonnet); rate 0.1250 kg/ha
  ORYSAT herbicidal rating: 8.5
[4]; rate 0.0156 kg/ha
  TRZAWR herbicidal rating: 5.5
[4]; rate 0.0313 kg/ha
  TRZAWR herbicidal rating: 6.0
[4]; rate 0.0625 kg/ha
  TRZAWR herbicidal rating: 7.5
[4]; rate 0.1250 kg/ha
  TRZAWR herbicidal rating: 9.0
ABUTH (Velvetleaf) [5]; rate 0.0313 kg/ha
  ABUTH preemergence herbicidal rating: 1.0
ABUTH (Velvetleaf) [5]; rate 0.0625 kg/ha
  ABUTH preemergence herbicidal rating: 2.0
ABUTH (Velvetleaf) [5]; rate 0.1250 kg/ha
  ABUTH preemergence herbicidal rating: 9.0
ABUTH (Velvetleaf) [5]; rate 0.2500 kg/ha
  ABUTH preemergence herbicidal rating: 9.0
ABUTH (Velvetleaf) [5]; rate 0.5000 kg/ha
  ABUTH preemergence herbicidal rating: 9.0
CASOB (Sicklepod); rate 0.0313 kg/ha
  CASOB preemergence herbicidal rating: 0.0
CASOB (Sicklepod); rate 0.0625 kg/ha
  CASOB preemergence herbicidal rating: 1.0
CASOB (Sicklepod); rate 0.1250 kg/ha
  CASOB preemergence herbicidal rating: 1.5
CASOB (Sicklepod); rate 0.2500 kg/ha
  CASOB preemergence herbicidal rating: 2.0
CASOB (Sicklepod); rate 0.5000 kg/ha
  CASOB preemergence herbicidal rating: 5.0
SETVI (Foxtail, Green) [6]; rate 0.0313 kg/ha
  SETVI preemergence herbicidal rating: 0.5
SETVI (Foxtail, Green) [6]; rate 0.0625 kg/ha
  SETVI preemergence herbicidal rating: 0.5
SETVI (Foxtail, Green) [6]; rate 0.1250 kg/ha
  SETVI preemergence herbicidal rating: 6.5
SETVI (Foxtail, Green) [6]; rate 0.2500 kg/ha
  SETVI preemergence herbicidal rating: 9.0
SETVI (Foxtail, Green) [6]; rate 0.5000 kg/ha
  SETVI preemergence herbicidal rating: 9.0
MOOVA (Monochoria); 0.0313 kg/ha
  Herbicidal rating MOOVA: 4.5
MOOVA (Monochoria); 0.0625 kg/ha
  Herbicidal rating MOOVA: 4.5
MOOVA (Monochoria); 0.1250 kg/ha
  Herbicidal rating MOOVA: 4.5
MOOVA (Monochoria); 0.2500 kg/ha
  Herbicidal rating MOOVA: 0.0
[7]; 0.0313 kg/ha
  Herbicidal rating SAGPY: 0.0
[7]; 0.0625 kg/ha
  Herbicidal rating SAGPY: 0.0
[7]; 0.1250 kg/ha
  Herbicidal rating SAGPY: 0.0
[7]; 0.2500 kg/ha
  Herbicidal rating SAGPY: 0.0
CYPIR (Rice Flatsedge); rate 0.0313 kg/ha
  Herbicidal rating CYPIR: 4.0
CYPIR (Rice Flatsedge); rate 0.0625 kg/ha
  Herbicidal rating CYPIR: 5.8
CYPIR (Rice Flatsedge); rate 0.1250 kg/ha
  Herbicidal rating CYPIR: 6.8
CYPIR (Rice Flatsedge); rate 0.2500 kg/ha
  Herbicidal rating CYPIR: 4.5
[8]; rate 0.0313 kg/ha
  Herbicidal rating SAGPY: 0.0
[8]; rate 0.0625 kg/ha
  Herbicidal rating SAGPY: 0.0
[8]; rate 0.1250 kg/ha
  Herbicidal rating SAGPY: 0.0
[8]; rate 0.2500 kg/ha
  Herbicidal rating SAGPY: 0.0

## CN(C)N1C(=O)CSC1=Nc1cc(-n2c(=O)cc(C(F)(F)F)n(C)c2=O)c(F)cc1Cl [Compound 23, 3-{4-Chloro-5-{[3-(dimethylamino)-4-oxo-2-thiazolidinylidine]amino}-2-fluorophenyl}-1-methyl-6-(trifluoromethyl)-2,4(1H,3H)-pyrimidinedione]
ABUTH (Velvetleaf) [1]; rate 0.0158 kg/ha
  ABUTH herbicidal rating: 3.0
ABUTH (Velvetleaf) [1]; rate 0.0315 kg/ha
  ABUTH herbicidal rating: 4.0
ABUTH (Velvetleaf) [1]; rate 0.0630 kg/ha
  ABUTH herbicidal rating: 5.0
AMBEL (Ragweed, Common); rate 0.0158 kg/ha
  AMBEL herbicidal rating: 2.0
AMBEL (Ragweed, Common); rate 0.0315 kg/ha
  AMBEL herbicidal rating: 4.0
AMBEL (Ragweed, Common); rate 0.0630 kg/ha
  AMBEL herbicidal rating: 7.0
ECHCG (Barnyardgrass); rate 0.0158 kg/ha
  ECHCG herbicidal rating: 0.0
ECHCG (Barnyardgrass); rate 0.0315 kg/ha
  ECHCG herbicidal rating: 2.0
ECHCG (Barnyardgrass); rate 0.0630 kg/ha
  ECHCG herbicidal rating: 2.0
SETVI (Foxtail, Green) [2]; rate 0.0158 kg/ha
  SETVI herbicidal rating: 2.0
SETVI (Foxtail, Green) [2]; rate 0.0315 kg/ha
  SETVI herbicidal rating: 4.0
SETVI (Foxtail, Green) [2]; rate 0.0630 kg/ha
  SETVI herbicidal rating: 4.0
[3]; rate 0.0158 kg/ha
  GLXMAW herbicidal rating: 3.0
[3]; rate 0.0315 kg/ha
  GLXMAW herbicidal rating: 3.5
[3]; rate 0.0630 kg/ha
  GLXMAW herbicidal rating: 5.0
ORYSAT (Rice, Tebonnet); rate 0.0158 kg/ha
  ORYSAT herbicidal rating: 2.0
ORYSAT (Rice, Tebonnet); rate 0.0315 kg/ha
  ORYSAT herbicidal rating: 2.5
ORYSAT (Rice, Tebonnet); rate 0.0630 kg/ha
  ORYSAT herbicidal rating: 4.5
[4]; rate 0.0158 kg/ha
  TRZAWR herbicidal rating: 2.5
[4]; rate 0.0315 kg/ha
  TRZAWR herbicidal rating: 4.0
[4]; rate 0.0630 kg/ha
  TRZAWR herbicidal rating: 5.0
ABUTH (Velvetleaf) [5]; rate 0.0156 kg/ha
  ABUTH preemergence herbicidal rating: 0.0
ABUTH (Velvetleaf) [5]; rate 0.0313 kg/ha
  ABUTH preemergence herbicidal rating: 1.0
ABUTH (Velvetleaf) [5]; rate 0.0625 kg/ha
  ABUTH preemergence herbicidal rating: 9.0
ABUTH (Velvetleaf) [5]; rate 0.1250 kg/ha
  ABUTH preemergence herbicidal rating: 9.0
ABUTH (Velvetleaf) [5]; rate 0.2500 kg/ha
  ABUTH preemergence herbicidal rating: 9.0
CASOB (Sicklepod); rate 0.0156 kg/ha
  CASOB preemergence herbicidal rating: 0.0
CASOB (Sicklepod); rate 0.0313 kg/ha
  CASOB preemergence herbicidal rating: 0.0
CASOB (Sicklepod); rate 0.0625 kg/ha
  CASOB preemergence herbicidal rating: 1.0
CASOB (Sicklepod); rate 0.1250 kg/ha
  CASOB preemergence herbicidal rating: 2.0
CASOB (Sicklepod); rate 0.2500 kg/ha
  CASOB preemergence herbicidal rating: 5.0
SETVI (Foxtail, Green) [6]; rate 0.0156 kg/ha
  SETVI preemergence herbicidal rating: 1.0
SETVI (Foxtail, Green) [6]; rate 0.0313 kg/ha
  SETVI preemergence herbicidal rating: 1.0
SETVI (Foxtail, Green) [6]; rate 0.0625 kg/ha
  SETVI preemergence herbicidal rating: 5.0
SETVI (Foxtail, Green) [6]; rate 0.1250 kg/ha
  SETVI preemergence herbicidal rating: 5.0
SETVI (Foxtail, Green) [6]; rate 0.2500 kg/ha
  SETVI preemergence herbicidal rating: 6.0
MOOVA (Monochoria); 0.1160 kg/ha
  Herbicidal rating MOOVA: 9.0
MOOVA (Monochoria); 0.2310 kg/ha
  Herbicidal rating MOOVA: 9.0
MOOVA (Monochoria); 0.4630 kg/ha
  Herbicidal rating MOOVA: 9.0
[7]; 0.1160 kg/ha
  Herbicidal rating SAGPY: 0.0
[7]; 0.2310 kg/ha
  Herbicidal rating SAGPY: 0.0
[7]; 0.4630 kg/ha
  Herbicidal rating SAGPY: 3.0
CYPIR (Rice Flatsedge); rate 0.1160 kg/ha
  Herbicidal rating CYPIR: 0.0
CYPIR (Rice Flatsedge); rate 0.2310 kg/ha
  Herbicidal rating CYPIR: 0.0
CYPIR (Rice Flatsedge); rate 0.4630 kg/ha
  Herbicidal rating CYPIR: 0.0
[8]; rate 0.1160 kg/ha
  Herbicidal rating SAGPY: 0.0
[8]; rate 0.2310 kg/ha
  Herbicidal rating SAGPY: 0.0
[8]; rate 0.4630 kg/ha
  Herbicidal rating SAGPY: 3.0

— patent US20020137929A1, “1 - (3-heterocyclylphenyl) isothiourea, -isourea, -guanidine and -amidine herbicidal agents” (Intellectual Property Department, BASF Aktiengesellschaft, priority 1998, published 2002)
